The source made the active and inactive calls. How the calls were made is not given here.
Tested on: CCRIS mutagenicity, Ames/micronucleus/aberration tests
Test: CCRIS mutagenicity studies
[1] = Test System: AMES SALMONELLA TYPHIMURIUM, Strain/Indicator: TA98, Metabolic Activation: NONE, Method: STANDARD PLATE
[2] = Test System: AMES SALMONELLA TYPHIMURIUM, Strain/Indicator: TA100, Metabolic Activation: NONE, Method: PREINCUBATION
[3] = Test System: AMES SALMONELLA TYPHIMURIUM, Strain/Indicator: TA100, Metabolic Activation: NONE, Method: STANDARD PLATE

O=C/C(=C(/Cl)C(=O)O)C(Cl)Cl
mutagenic call (Test System: AMES SALMONELLA TYPHIMURIUM, Strain/Indicator: TA97, Metabolic Activation: NONE, Method: STANDARD PLATE): inactive; negative | mutagenic call (Test System: AMES SALMONELLA TYPHIMURIUM, Strain/Indicator: TA97, Metabolic Activation: RAT, LIVER, S-9, PHENOBARBITAL, Method: STANDARD PLATE): inactive; negative | mutagenic call (Test System: AMES SALMONELLA TYPHIMURIUM, Strain/Indicator: TA98, Metabolic Activation: NONE, Method: PREINCUBATION): active; positive | mutagenic call [1]: active; positive | mutagenic call (Test System: AMES SALMONELLA TYPHIMURIUM, Strain/Indicator: TA98, Metabolic Activation: RAT, LIVER, S-9, PHENOBARBITAL, Method: STANDARD PLATE): inactive; negative | mutagenic call [2]: active; positive | mutagenic call [3]: active; positive | mutagenic call (Test System: AMES SALMONELLA TYPHIMURIUM, Strain/Indicator: TA100, Metabolic Activation: RAT, LIVER, S-9, PHENOBARBITAL, Method: STANDARD PLATE): inactive; negative | mutagenic call (Test System: AMES SALMONELLA TYPHIMURIUM, Strain/Indicator: TA104, Metabolic Activation: NONE, Method: PREINCUBATION): active; positive

O=C(O)C(Cl)Cl
mutagenic call (End Point: IN VITRO CHROMOSOMAL ABERRATIONS, Test System: CHL CELLS, Metabolic Activation: RAT, LIVER, S-9, SODIUM PHENOBARBITAL AND 5,6-BENZOFLAVONE): active; positive (structural changes) | mutagenic call (End Point: In vivo micronucleus, Test System: Normochromatic erythrocytes, Species: Mouse, Strain/Sex: B6C3F1/Male, Route: Oral): inactive; negative | mutagenic call (End Point: In vivo micronucleus, Test System: Peripheral blood normochromatic erythrocytes, Species: Mouse, Strain/Sex: B6C3F1/Female, Route: Oral): inactive; negative; increase in frequency of micronucleated erythrocytes was judged to be | mutagenic call (End Point: In vivo micronucleus, Test System: Peripheral blood normochromatic erythrocytes, Species: Mouse, Strain/Sex: B6.129-TRP53TM1 BRD/Female, Route: Oral): inactive; negative | mutagenic call (End Point: In vivo micronucleus, Test System: Peripheral blood normochromatic erythrocytes, Species: Mouse, Strain/Sex: B6.129-TRP53TM1 BRD/Male, Route: Oral): inactive; negative | mutagenic call (End Point: In vivo micronucleus, Test System: Peripheral blood normochromatic erythrocytes, Species: Mouse, Strain/Sex: FVB/N-TgN (v-Ha-ras)Led (Tg.AC) hemizygous/Female, Route: Dermal): inactive; negative | mutagenic call (End Point: In vivo micronucleus, Test System: Peripheral blood normochromatic erythrocytes, Species: Mouse, Strain/Sex: FVB/N-TgN (v-Ha-ras)Led (Tg.AC) hemizygous/Male, Route: Dermal): inactive; negative | mutagenic call (End Point: In vivo micronucleus, Test System: Peripheral blood normochromatic erythrocytes, Species: Mouse, Strain/Sex: Tg.AC hemizygous/Female, Route: Oral): inactive; negative | mutagenic call (End Point: In vivo micronucleus, Test System: Peripheral blood normochromatic erythrocytes, Species: Mouse, Strain/Sex: Tg.AC hemizygous/Male, Route: Oral): inactive; negative | mutagenic call (Test System: AMES SALMONELLA TYPHIMURIUM, Strain/Indicator: RSJ100, Metabolic Activation: NONE, Method: PREINCUBATION): active; positive | mutagenic call (Test System: AMES SALMONELLA TYPHIMURIUM, Strain/Indicator: RSJ100, Metabolic Activation: RAT LIVER S-9, Method: PREINCUBATION): inactive; negative | mutagenic call [1]: inactive; negative | mutagenic call (Test System: AMES SALMONELLA TYPHIMURIUM, Strain/Indicator: TA98, Metabolic Activation: RAT LIVER S-9, Method: PREINCUBATION): inactive; negative | mutagenic call (Test System: AMES SALMONELLA TYPHIMURIUM, Strain/Indicator: TA98, Metabolic Activation: RAT, LIVER, S-9, AROCLOR 1254, Method: STANDARD PLATE): inactive; negative | mutagenic call (Test System: AMES SALMONELLA TYPHIMURIUM, Strain/Indicator: TA98, Metabolic Activation: RAT, LIVER, S-9, PHENOBARBITAL AND 5,6-BENZOFLAVONE, Method: PREINCUBATION): inactive; negative | mutagenic call (Test System: AMES SALMONELLA TYPHIMURIUM, Strain/Indicator: TA100, Metabolic Activation: NONE, Method: BAG VAPORIZATION): active; positive | mutagenic call (Test System: AMES SALMONELLA TYPHIMURIUM, Strain/Indicator: TA100, Metabolic Activation: NONE, Method: FLUCTUATION TEST): active; positive | mutagenic call [2]: active; positive | mutagenic call [3]: inactive; negative | mutagenic call (Test System: AMES SALMONELLA TYPHIMURIUM, Strain/Indicator: TA100, Metabolic Activation: RAT LIVER S-9, Method: PREINCUBATION): active; positive | mutagenic call (Test System: AMES SALMONELLA TYPHIMURIUM, Strain/Indicator: TA100, Metabolic Activation: RAT, LIVER, S-9, AROCLOR 1254, Method: BAG VAPORIZATION): active; positive | mutagenic call (Test System: AMES SALMONELLA TYPHIMURIUM, Strain/Indicator: TA100, Metabolic Activation: RAT, LIVER, S-9, AROCLOR 1254, Method: FLUCTUATION TEST): active; positive | mutagenic call (Test System: AMES SALMONELLA TYPHIMURIUM, Strain/Indicator: TA100, Metabolic Activation: RAT, LIVER, S-9, AROCLOR 1254, Method: STANDARD PLATE): inactive; negative | mutagenic call (Test System: AMES SALMONELLA TYPHIMURIUM, Strain/Indicator: TA100, Metabolic Activation: RAT, LIVER, S-9, PHENOBARBITAL AND 5,6-BENZOFLAVONE, Method: PREINCUBATION): inactive; negative | mutagenic call (Test System: AMES SALMONELLA TYPHIMURIUM, Strain/Indicator: TA102, Metabolic Activation: NONE, Method: STANDARD PLATE): inactive; negative | mutagenic call (Test System: AMES SALMONELLA TYPHIMURIUM, Strain/Indicator: TA102, Metabolic Activation: RAT LIVER S-9, AROCLOR 1254, Method: STANDARD PLATE): inactive; negative | mutagenic call (Test System: AMES SALMONELLA TYPHIMURIUM, Strain/Indicator: TA102, Metabolic Activation: RAT, LIVER, S-9, PHENOBARBITAL AND 5,6-BENZOFLAVONE, Method: STANDARD PLATE): inactive; negative | mutagenic call (Test System: AMES SALMONELLA TYPHIMURIUM, Strain/Indicator: TA1535, Metabolic Activation: NONE, Method: STANDARD PLATE): inactive; negative | mutagenic call (Test System: AMES SALMONELLA TYPHIMURIUM, Strain/Indicator: TA1535, Metabolic Activation: RAT, LIVER, S-9, AROCLOR 1254, Method: STANDARD PLATE): inactive; negative | mutagenic call (Test System: AMES SALMONELLA TYPHIMURIUM, Strain/Indicator: TA1537, Metabolic Activation: NONE, Method: STANDARD PLATE): inactive; negative | mutagenic call (Test System: AMES SALMONELLA TYPHIMURIUM, Strain/Indicator: TA1537, Metabolic Activation: RAT, LIVER, S-9, AROCLOR 1254, Method: STANDARD PLATE): inactive; negative | mutagenic call (Test System: AMES SALMONELLA TYPHIMURIUM, Strain/Indicator: TA2638, Metabolic Activation: RAT, LIVER, S-9, PHENOBARBITAL AND 5,6-BENZOFLAVONE, Method: STANDARD PLATE): inactive; negative | mutagenic call (Test System: Ames Salmonella typhimurium, Strain/Indicator: TA98, Metabolic Activation: Hamster, liver, S-9, Aroclor 1254 (30%), Method: Preincubation): inactive; negative | mutagenic call (Test System: Ames Salmonella typhimurium, Strain/Indicator: TA98, Metabolic Activation: Hamster, liver, S-9, Aroclor 1254, 30%, Method: Preincubation): inactive; negative | mutagenic call (Test System: Ames Salmonella typhimurium, Strain/Indicator: TA98, Metabolic Activation: Rat, liver, S-9, Aroclor 1254, 30%, Method: Preincubation): inactive; negative | mutagenic call (Test System: Ames Salmonella typhimurium, Strain/Indicator: TA100, Metabolic Activation: Hamster, liver, S-9, Aroclor 125, 30%, Method: Preincubation): inactive; negative | mutagenic call (Test System: Ames Salmonella typhimurium, Strain/Indicator: TA100, Metabolic Activation: Hamster, liver, S-9, Aroclor 1254, 30%, Method: Preincubation): inactive; negative | mutagenic call (Test System: Ames Salmonella typhimurium, Strain/Indicator: TA100, Metabolic Activation: None, Method: Preincubation): active; positive | mutagenic call (Test System: Ames Salmonella typhimurium, Strain/Indicator: TA100, Metabolic Activation: Rat, liver, S-9, Aroclor 1254, 30%, Method: Preincubation): inactive; negative | mutagenic call (Test System: Ames Salmonella typhimurium, Strain/Indicator: TA1535, Metabolic Activation: None, Method: Preincubation): active; positive, three trials performed; ntp described results as positive, weakly posi | mutagenic call (Test System: E. COLI, Strain/Indicator: WP2 (PKM101), Metabolic Activation: RAT, LIVER, S-9, PHENOBARBITAL AND 5,6-BENZOFLAVONE, Method: STANDARD PLATE): inactive; negative | mutagenic call (Test System: E. COLI, Strain/Indicator: WP2 UVRA (PKM101), Metabolic Activation: RAT, LIVER, S-9, PHENOBARBITAL AND 5,6-BENZOFLAVONE, Method: STANDARD PLATE): inactive; negative | mutagenic call (Test System: E. COLI, Strain/Indicator: WP2 UVRA, Metabolic Activation: NONE, Method: STANDARD PLATE): inactive; negative | mutagenic call (Test System: E. COLI, Strain/Indicator: WP2 UVRA, Metabolic Activation: RAT, LIVER, S-9, AROCLOR 1254, Method: STANDARD PLATE): inactive; negative | mutagenic call (Test System: MOUSE LYMPHOMA, Strain/Indicator: L5178Y (TK+/TK- -3.7.2C), Metabolic Activation: NONE): active; positive | mutagenic call (Test System: MOUSE LYMPHOMA, Strain/Indicator: L5178Y (TK+/TK-), Metabolic Activation: NONE, Method: SUSPENSION/PLATE): inactive; negative | mutagenic call (Test System: MOUSE LYMPHOMA, Strain/Indicator: L5187Y (TK+/TK-), Metabolic Activation: RAT, LIVER, S-9, AROCLOR 1254, Method: SUSPENSION/PLATE): inactive; negative

COC(=O)C1=CCCN(C)C1
mutagenic call [1]: inactive; negative | mutagenic call (Test System: AMES SALMONELLA TYPHIMURIUM, Strain/Indicator: TA98, Metabolic Activation: RAT, LIVER, S-9, Method: STANDARD PLATE): inactive; negative | mutagenic call [3]: active; positive | mutagenic call (Test System: AMES SALMONELLA TYPHIMURIUM, Strain/Indicator: TA100, Metabolic Activation: RAT, LIVER, S-9, Method: STANDARD PLATE): active; positive

Reference: PubChem BioAssay AID1259407 (Chemical Carcinogenesis Research Information System (CCRIS), 2018)
